Data taken from patent publication US12195424B2, “Antibiotic compounds” (The General Hospital Corporation, priority 2017, dated 2025).

Assays:
[1] = test system: Cutibacterium (Propionibacterium) acnes; experiment: Morphology of treated P. acnes bacteria; type: cell-based; conditions: in words (FIG. 13)
[2] = test system: human erythrocytes; experiment: Human blood hemolysis; type: cell-based
Procedure: Human blood hemolysis. Hemolytic activity of retinoids on human erythrocytes was evaluated using a previously described method with modifications. 10% human erythrocytes were purchased from Rockland Immunochemicals (Limerick, PA, USA). The erythrocytes were diluted to 4% with PBS, and 100 μl was added to 100 μl of two-fold serial dilutions of compounds in PBS, 0.2% DMSO (negative control), or 2% Triton-X 100 (positive control) in a 96-well plate. The plate was incubated at 37° C. for 1 h and then centrifuged at 500×g for 5 min. 100 μl of the supernatant was transferred to a fresh 96-well plate and absorbance of supernatants was measured at 540 nm. Percent hemolysis was calculated using the following equation: (A540 nm of compound treated sample−A540 nm of 0.1% DMSO treated sample)/(A540 nm of 1% Triton X-100 treated sample−A540 nm of 0.1% DMSO treated sample)×100. HC50 (concentration of compound causing 50% hemolysis) was determined using SigmaPlot 10.0 (Systat Software Inc., San Jose, CA, USA).

[3] = test system: S. aureus MW2; experiment: Deep-seated mouse thigh infection model; type: in vivo, mice; conditions: every 12 h for 3 days, p<0.001
Procedure: Deep-seated mouse thigh infection model for evaluating drug efficacy. A previously described protocol to mimic a chronic, deep-tissue infection was used with modifications. Six-week-old female CD1 ICR outbred mice (20-25 g) were obtained from Charles River Laboratories (Wilmington, MA, USA). To make mice neutropenic, 150 mg/kg and 100 mg/kg of cyclophosphamide were administered via i.p. injection at 4 days and 1 day before infection, respectively. On the day of infection, ˜10^5 cells of stationary-phase S. aureus MW2 suspended in 50 μl of saline were injected to the right thigh of each mouse. To test the efficacy of CD437, the compound was dissolved in a 1:1 solution of Kolliphor EL (Sigma-Aldrich, St Louis, MO, USA) and ethanol and then diluted 1:10 in saline to a final concentration of […]. […] At 24 h post-infection, groups of mice (n=10) were treated with 30 mg/kg gentamicin subcutaneously (s.c.), 25 mg/kg vancomycin i.p., 20 mg/kg CD437 i.p., or a combination of 20 mg/kg CD437 i.p. and 30 mg/kg gentamicin s.c. every 12 h for 3 days. Control mice were injected with 200 μl of 10% Kolliphor EL/ethanol in saline i.p. every 12 h for 3 days. For testing the efficacy of Analog 2, the compound was dissolved in a 1:1 solution of Kolliphor EL (Sigma-Aldrich, St Louis, MO, USA) and ethanol and then diluted 1:10 in saline to a final concentration of 4 mg/ml. […] Serum was analyzed for alanine aminotransferase and urea nitrogen content with commercially available kits, following the manufacturer's protocol (Pointe Scientific, Canton, MI, USA). […] The bacterial burden was recorded as CFU/g tissue. A sample size of 10 mice per group was calculated for a single-tailed power analysis using a standard deviation based on our historical data and the literature in consultation with the Rhode Island Hospital Biostatistics Core. […] Statistical significance among each group was analyzed by one-way ANOVA with post-hoc Tukey test using PASW Statistics 18 (SPSS Inc. Chicago, IL, USA) and GraphPad Prism 7 (GraphPad Software, La Jolla, CA, USA).

[4] = Maximum tolerated dose; type: in vivo; conditions: mice
Procedure: Maximum tolerated dose. Six-week-old female CD1 ICR outbred mice (20-25 g) were obtained from Charles River Laboratories (Wilmington, MA, USA). Analog 2 was dissolved in a 1:1 solution of Kolliphor EL (Sigma-Aldrich, St Louis, MO, USA) and ethanol and then diluted 1:10 in saline to a final concentration of 4 mg/ml. Groups of mice (n=6) were treated with 10, 20, 40, 80 mg/kg Analog 2 i.p. or vancomycin (25 mg/kg) every 12 h for 3 days. Control mice were injected with 400 μl of 10% Kolliphor EL/ethanol in saline i.p. every 12 h for 3 days. Mice were closely monitored until they were euthanized at 72 h from the first infection. After euthanizing mice, blood was collected by cardiac puncture. All samples were stored at 4° C. until for analysis. Serum was analyzed for alanine aminotransferase and urea nitrogen content with commercially available kits, following the manufacturer's protocol (Pointe Scientific, Canton, MI, USA). No statistical methods were used to predetermine samples size. The experiments were not randomized, and investigators were not blinded to allocation during experiments and outcome assessment. This study and all experimental protocols were approved by the Rhode Island Hospital Institutional Animal Care and Use Committee (RIH IACUC) and conducted in accordance with the Animal Welfare Act and National Institutes of Health guidelines for animal care and use. Statistical significance among each group was analyzed by one-way ANOVA with post-hoc Tukey test using PASW Statistics 18 (SPSS Inc. Chicago, IL, USA) and GraphPad Prism 7 (GraphPad Software, La Jolla, CA, USA).

[5] = every 12 h for 3 days, Analog 2 10-80 mg/kg i.p., vancomycin 25 mg/kg i.p., P>0.7

OCc1ccc2cc(-c3ccc(O)c(C45CC6CC(CC(C6)C4)C5)c3)ccc2c1 [Analog 2, 2-(adamantan-1-yl)-4-(6-(hydroxymethyl)naphthalen-2-yl)phenol]
morphology of bacteria [1]: altered and elongated | hemolytic activity ([2]; compared with CD437, in words): significantly reduced | HC50 ([2]; human erythrocytes, 1 h): > 32 µg/mL | decrease in bacterial burden ([3]; 40 mg/kg i.p. in combination with 30 mg/kg gentamicin s.c.): ~1 log | decrease in bacterial burden ([3]; 80 mg/kg i.p. alone): ~1 log | decrease in bacterial burden ([3]; 80 mg/kg i.p. in combination with 30 mg/kg gentamicin s.c.): ~2 log | alanine aminotransferase (ALT) vs. control [4, 5]: lack of significant differences | blood urea nitrogen (BUN) vs. control [4, 5]: lack of significant differences | hepatic or renal toxicity ([4]; up to 80 mg/kg i.p. (highest tested dose) every 12 h for 3 days): no detectable
